Data set [1] deals with LCC6-MDR: MDR1 transduced line. Description: cytotoxicity assay of second generation taxoids. The format is cell-based, human. Particulars: for activity against drug-resistant vs drug-sensitive cell lines, in words: LCC6 and MCF7 pairs.
Another data set concerns HT-29 (colon carcinoma). Briefly: tumor cell growth inhibition (SRB, 72 h drug exposure). The format is cell-based, human. The following applies: 72 h drug exposure. As to the method:
(§1) Lower numbers indicate higher potency. […] The data represent the mean values of at least three separate experiments. Lower numbers indicate greater activity.
(§2) Assessment of cell growth inhibition was determined according to the methods of Skehan et al., J. Nat. Cancer Inst. […] Briefly, cells were plated between 400 and 1200 cells/well in 96 well plates and incubated at 37° C. for 15-18 h prior to drug addition to allow attachment of cells. […] After a 72 h incubation, […] of ice-cold 50% TCA was added to each well and incubated for 1 h at 4° C. Plates were then washed 5 times with tap water to remove TCA, low-molecular-weight metabolites and serum proteins. Sulforhodamine B (SRB) (0.4%, […]) was added to each well. Following a 5 min incubation at room temperature, plates were rinsed 5 times with 0.1% acetic acid and air dried. […] Optical density was measured at 570 nm.

The next data set has as its system MCF7 (mammary carcinoma). Described as above. The data set is classed as cell-based, human. Particulars: 72 h drug exposure. As to the method:
as §1, §2

The subject of data set [2] is A549 (non-small cell lung carcinoma). Described as above. The data set is classed as cell-based, human. Particulars: 72 h drug exposure, read-out: A549 (NSCLC) IC50. On the procedure:
as §1, §2

The test system of a further data set is A121 (ovarian carcinoma). The data set is described as above. The data set is classed as cell-based, human. The following applies: 72 h drug exposure. On the procedure:
as §1, §2

For data set [3], the system named is LCC6-WT: human breast carcinoma. Description: cytotoxicity assay of second generation taxoids. The data set is classed as cell-based. Particulars: 72 h drug exposure, read-out: LCC6-WT IC50. As to the method: A cytotoxicity assay of these new second generation taxoids was performed on human breast cancer cell lines, LCC6-WT and LCC-MDR, and selected taxoids were also assayed for their potency against MCF7 and MCF7-R (Skehan, P., et al., J. Nat. Cancer Inst. 1990, 82, 1107-1112).

Another data set deals with NCI-H23. Briefly: growth inhibition by cell counts, 72 h. The format is cell-based, human. Particulars: read-out: NCI-H23 IC50. On the procedure: (§3) Cells were plated in 6-well flat bottom plates (Falcon, Lincoln Park, N.J.) at a concentration of 10^5 cells ml in complete medium. After 24 h, the medium was replaced with media containing the test substances. Control cells were treated with vehicle alone. Cells were then washed twice and cultures maintained up to 72 h in complete medium (without removing the test substances). At this time point quadruplicate counts of triplicate cultures were performed. To calculate the growth inhibition effect, three independent experiments were performed for each test substance/cell line. The IC50 values were then calculated by fitting the concentration-effect curve data obtained in the three experiments with the sigmoid-Emax model using nonlinear regression, weighted by the reciprocal of the square of the predicted effect according to the method of Motulsky, H. J. and Ransnas, L. A., FASEB J. 1:365-74 (1987).

The test system of another data set is DU-145. Briefly: growth inhibition by cell counts, 72 h. The following applies: read-out: DU-145 IC50. The format is cell-based, human. As to the method:
as §3

For another data set, the system named is MCF-7 wt. Briefly: growth inhibition by cell counts, 72 h. The data set is classed as cell-based, human. Particulars: read-out: MCF-7 wt IC50. On the procedure: as §3
The next data set deals with MCF-7 ADRr. Briefly: growth inhibition by cell counts, 72 h. The data set is classed as cell-based, human. The following applies: read-out: MCF-7 ADRr IC50. As to the method: as §3
The test system of the next data set is WiDr. Description: growth inhibition by cell counts, 72 h. The format is cell-based, human. Particulars: read-out: WiDr IC50. On the procedure:
as §3

The test system of another data set is A2780. Briefly: growth inhibition by cell counts, 72 h. Particulars: read-out: A2780 IC50. The format is cell-based, human. On the procedure:
as §3

Data set [4] deals with MCF7-R (mammary carcinoma cells 180-fold resistant to adriamycin). Description: tumor cell growth inhibition (SRB, 72 h drug exposure). The format is cell-based, human. Particulars: for IC50: 72 h drug exposure. On the procedure:
as §1, §2

In another data set the test system is B16 melanoma. Briefly: intravenous administration to mice bearing B16 melanoma. The data set is classed as in vivo, B6D2F1 female mice. The arrangement: key to Responses (activity rating): A = active; HA = highly active. On the procedure: (§4) The efficacy of the test compounds on solid tumors in vivo was determined experimentally according to the following general experimental protocol:
(§5) The mice subjected to the experiment were subcutaneously grafted bilaterally with 30 to 60 mg of a tumor fragment on day zero. Mice bearing tumors were mixed before being subjected to the various treatments and controls. In the case of treatment of advanced tumors, tumors were allowed to develop to the desired size, and mice having insufficiently developed tumors were eliminated. The selected mice were distributed at random to undergo the treatments and controls. Mice not bearing tumors may also be subjected to the same treatments as the tumor-bearing mice in order to be able to dissociate the toxic effect from the specific effect on the tumor. Chemotherapy generally began from 3 to 22 days after grafting, depending on the type of tumor, and the mice were observed every day. The different mice groups were weighed 3 or 4 times a week until the maximum weight loss was attained (nadir), and the groups were then weighed at least once a week until the end of the trial.
(§6) The tumors were measured 2 or 3 times a week until the tumor reached approximately 2 grams, or until the animal died, if this occurred before the tumor reached 2 grams. The mice were autopsied when sacrificed.
(§7) The antitumor activity was determined in accordance with different parameters recorded such as dose (mg/kg), mode of administration, time of administration, cytotoxicity, toxicity and log10 cell kill.
SB-T-1213, SB-T-121303, SB-T-121304 and SB-T-1250 were evaluated in B6D2F1 female mice bearing B16 melanoma. The general experimental protocol was as described above. The compounds evaluated were administered intravenously (iv) on an intermittent schedule on days 3, 5, and 7 post tumor implantation. With the exception of SB-T-1250, solutions of the compounds for administration were prepared in 5% ethanol, 5% polysorbate 80, and 90% glucose 5% water.

In data set [5] the test system is docetaxel-resistant melanoma, B16/TXT. Description: intravenous administration to B16/TXT melanoma-bearing mice. The data set is classed as in vivo, B6D2F1 female mice. On the set-up: key to Responses (activity rating): A = active; HA = highly active. As to the method: as §4, §5, §6, §7
SB-T-1213, SB-T-121303, SB-T-121304 and SB-T-1250 were evaluated in B6D2F1 female mice bearing the docetaxel-resistant melanoma, B16/TXT. The general experimental protocol was as described above. The compounds evaluated were administered intravenously on an intermittent schedule on days 3, 5, and 7 post tumor implantation.

Another data set has as its system PC-3. Description: growth inhibition by cell counts, 72 h. The format is cell-based, human. The following applies: 72 h. On the procedure: as §3

“And” between values parts separate entries of the source, which are not always exact repeats. Equal values may be shown once. “Also recorded” adds a separate entry of the source. Read-outs that look alike come from different tables or passages of the source.

By IC50 is commonly meant the midpoint of a concentration-inhibition curve. As for `CC(=O)O[C@@]12CO[C@@H]1C[C@H](O)[C@@]1(C)C(=O)[C@H](O)C3=C(C)[C@@H](OC(=O)[C@H](O)[C@@H](NC(=O)OC(C)(C)C)c4ccccc4)C[C@@](O)([C@@H](OC(=O)c4ccccc4)[C@H]21)C3(C)C` [Docetaxel, docetaxel, reference compound], the IC50 in [1] (Homo sapiens, LCC6MDR, 72 h drug exposure, read-out: LCC6-MDR IC50) stood at 120 nM; in the data set on HT-29 (colon carcinoma) (Homo sapiens, HT-29) it was 1.2 nM; in the data set with MCF7 (mammary carcinoma) (Homo sapiens, MCF7, Table 1, read-out: MCF7 (breast) IC50), 1 nM; in the data set on MCF7 (mammary carcinoma) (Homo sapiens, MCF7, Table 3, read-out: MCF7 IC50) it was 1 nM; in [2] (Homo sapiens, A549), 1 nM; with A121 (ovarian carcinoma) (Homo sapiens, A121), 1.2 nM. Besides, the IC50 in [3] (Homo sapiens) turned out to be 1 nM; in the data set with NCI-H23 (Homo sapiens, NCI-H23, 72 h) it was 3 nM; in the data set with DU-145 (Homo sapiens, DU-145, 72 h), 0.8 nM; in the data set on MCF-7 wt (Homo sapiens, MCF7, 72 h), 3.6 nM; with MCF-7 ADRr (Homo sapiens, MCF7, 72 h), 970 nM; in the data set on WiDr (Homo sapiens, WiDr), 2.3 nM. For the same compound, the IC50 in the data set with A2780 (Homo sapiens, A2780, 72 h) came out at 4.95 nM.
In the case of `CCC(=O)OC1C(=O)C2(C)C(O)CC3OCC3(OC(C)=O)C2C(OC(=O)c2cccc(N=[N+]=[N-])c2)C2(O)CC(OC(=O)C(O)C(C=C(C)C)NC(=O)OC(C)(C)C)C(C)=C1C2(C)C` (centres unmarked) [Taxoid 7o, 3′-Dephenyl-3′-(2-methylprop-1-enyl)-2-debenzoyl-2-(3-azidobenzoyl)-10-propanoyldocetaxel], the “activity against drug-resistant vs drug-sensitive cell lines, in words” value in data set [1] is given as “virtually no difference in activity”. In addition, the IC50 in the data set on MCF7 (mammary carcinoma) (Table 3, read-out: MCF7 IC50) was determined as 0.9 nM; in [4] (Table 3), 1.1 nM; in [3], 0.9 nM.
On to `CC=CC(NC(=O)OC(C)(C)C)C(O)C(=O)OC1CC2(O)C(OC(=O)c3ccccc3)C3C4(OC(C)=O)COC4CC(O)C3(C)C(=O)C(OC(C)=O)C(=C1C)C2(C)C` (centres unmarked) [Taxoid Ia, 3′-dephenyl-3′-(1-propenyl)-10-acetyldocetaxel], for which the IC50 with HT-29 (colon carcinoma) stood at 0.76 nM; in the data set on MCF7 (mammary carcinoma) (Table 1, read-out: MCF7 (breast) IC50) it was 0.51 nM; in data set [2], 0.54 nM; with A121 (ovarian carcinoma), 0.9 nM; in data set [4] (Table 1) it was 14 nM. Further, the “times better activity than docetaxel” value in data set [4] (MCF7-R) is on record as 17 times. Also, the “times better activity than paclitaxel” value in data set [4] (MCF7-R) was found to be 21 times.
Broadly, the T/C is the ratio of treated to control. Take “3′-dephenyl-3′-(2,2-dimethyl-1-cyclopropyl)-10-acetyldocetaxel [SB-T-1250]”: the “Responses (activity rating)” value (in the data set with B16 melanoma (4.5 mg/kg/adm.); in data set [5] (7.3 mg/kg/adm.)) was “A” throughout. For the same compound, the T/C with B16 melanoma (4.5 mg/kg/adm., days 3, 5, 7) is given as 23%; in data set [5] (2.8 mg/kg/adm., days 3, 5, 7), 152%; in data set [5] (4.5 mg/kg/adm., days 3, 5, 7) it was 108%; in data set [5] (7.3 mg/kg/adm., days 3, 5, 7), 41%. Also, the log10 cell kill in the data set on B16 melanoma (4.5 mg/kg/adm., days 3, 5, 7) amounted to 1.2; in [5] (7.3 mg/kg/adm., days 3, 5, 7) it was 1.1. The “% body weight loss at nadir” value in the data set with B16 melanoma (4.5 mg/kg/adm., days 3, 5, 7, 4.5 mg/kg) was 12.5% and 12.5 (3) %; in data set [5] (7.3 mg/kg/adm., days 3, 5, 7, 7.3 mg/kg), 16.7% and 16.7 (4) %. Further, the “drug related deaths (DD)” value with B16 melanoma (7.3 mg/kg/adm., days 3, 5, 7) was “⅕”; in the data set with B16 melanoma (11.8 mg/kg/adm., days 3, 5, 7) it was “⅗”; in the data set on B16 melanoma (19 mg/kg/adm., days 3, 5, 7), 100%. Moreover, the highest nontoxic dose in the data set on B16 melanoma (days 3, 5, 7) was 4.5 mg/kg/adm; in data set [5] (days 3, 5, 7) it was 7.3 mg/kg/adm. The IC50 in the data set with PC-3 turned out to be 0.7 nM; in the data set with NCI-H23 (72 h), 1.6 nM; with DU-145 (72 h) it was 0.6 nM; in the data set with MCF-7 wt (72 h) it was 2.3 nM; in the data set with MCF-7 ADRr (72 h), 48 nM; in the data set on WiDr, 0.5 nM. Moreover, the IC50 in the data set on A2780 (72 h) worked out at 3.03 nM.
With `CCC(=O)OC1C(=O)C2(C)C(O)CC3OCC3(OC(C)=O)C2C(OC(=O)c2cccc(OC)c2)C2(O)CC(OC(=O)C(O)C(C=C(C)C)NC(=O)OC(C)(C)C)C(C)=C1C2(C)C` (centres unmarked) [Taxoid 7f, 3′-Dephenyl-3′-(2-methylprop-1-enyl)-2-debenzoyl-2-(3-methoxybenzoyl)-10-propanoyldocetaxel], the “activity against drug-resistant vs drug-sensitive cell lines, in words” value in [1] is “slightly better activity against the drug-resistant cell lines; also recorded: virtually no difference in activity”. Further, the concentration for half-maximal inhibition (IC50) with MCF7 (mammary carcinoma) (Table 3, read-out: MCF7 IC50) was 0.36 nM; in data set [4] (Table 3), 0.33 nM; in data set [3], 1 nM.

The record behind these values is US6500858B2, “Taxoid anti-tumor agents and pharmaceutical compositions thereof” (The Research Foundation of the state University of New York, priority 1994, dated 2002).
